We go through 25 molecules from US8680159B2, “Bradykinin 1 receptor modulating compounds” (Gruenenthal GmbH, priority 2010, dated 2014).

Structures are written as SMILES.

For the first test, the target named is T1, B1R receptor of the rat (CHO K1 cells stably transfected with the B1R gene of the rat) (Rattus norvegicus, UniProt P97583).
T1 construct: expressed in transfected cells; host or cells: CHO K1 cells (Chinese hamster ovary), stably transfected
T1 sequence (P97583 1-337): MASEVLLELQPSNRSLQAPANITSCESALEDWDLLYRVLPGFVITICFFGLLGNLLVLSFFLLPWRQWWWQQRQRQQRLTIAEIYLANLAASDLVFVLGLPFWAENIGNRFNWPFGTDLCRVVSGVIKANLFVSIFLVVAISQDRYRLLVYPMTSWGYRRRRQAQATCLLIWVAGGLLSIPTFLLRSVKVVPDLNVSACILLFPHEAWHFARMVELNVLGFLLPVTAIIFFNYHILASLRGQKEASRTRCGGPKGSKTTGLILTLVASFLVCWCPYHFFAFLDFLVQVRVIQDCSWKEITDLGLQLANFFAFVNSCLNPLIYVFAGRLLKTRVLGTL
The test is described as follows: Functional study on the bradykinin receptor 1 (B1R), Ca2+ fluorescence (Fluo-4) FLIPR/Novostar assay, rB1R cells. Format: cell-based. The settings on record: CHO-K1, 10 μM, library compounds CC_H, read-out: % Inhibition (r-B1R) at 10 μM. The gist of the method: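 Stably transfected CHO K1 cells carrying human or rat B1R were Fluo-4 loaded and Ca2+ fluorescence read by FLIPR or Novostar. Compounds were added first at 10 μM for % activation, then the EC80 agonist was applied after 6-20 min (human: Lys-Des-Arg9-bradykinin; rat: Des-Arg9-bradykinin). % inhibition is relative to maximum achievable inhibition, and IC50 comes from concentration series.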
As to `CN(C(=O)c1ccc2c(c1)C(NC(=O)c1ccccc1Cl)CC2)C1CCN(c2ccnnc2)CC1` (stereo not shown) [CC_H-633, 3-[(2-Chloro-benzoyl)amino]-N-methyl-N-(1-pyridazin-4-yl-piperidin-4-yl)-2,3-dihydro-1H-indene-5-carboxylic acid amide], the inhibition at 10 µM was found to be 103%.
On the same count and under the same terms, under `CN(C(=O)c1ccc2c(c1)C(NC(=O)CCC1CCCC1)CC2)C1CCN(c2ccnc(C(C)(C)C)n2)CC1` (stereo not shown) [CC_H-624, N-[1-(2-tert-Butyl-pyrimidin-4-yl)-piperidin-4-yl]-3-(3-cyclopentyl-propanoylamino)-N-methyl-2,3-dihydro-1H-indene-5-carboxylic acid amide] stands 96%; under `CN(C)c1nccc(N2CCC(N(C)C(=O)c3ccc4c(c3)C(NC(=O)c3cccnc3C(F)(F)F)CC4)CC2)n1` (stereo not shown) [CC_H-608, N-[6-[[1-(2-Dimethylamino-pyrimidin-4-yl)-piperidin-4-yl]-methyl-carbamoyl]-2,3-dihydro-1H-inden-1-yl]-2-(trifluoromethyl)-pyridine-3-carboxylic acid amide], 102%.
As for `CN(C(=O)c1ccc2c(c1)C(NC(=O)c1cccnc1C(F)(F)F)CC2)C1CCN(c2ccnnc2)CC1` (stereo not shown) [CC_H-628, N-[6-[Methyl-(1-pyridazin-4-yl-piperidin-4-yl)-carbamoyl]-2,3-dihydro-1H-inden-1-yl]-2-(trifluoromethyl)-pyridine-3-carboxylic acid amide], the inhibition at 10 µM was 99%.

Still in this test, the particulars now being: CHO-K1, 10 μM, read-out: % Inhibition (r-B1R) at 10 μM.
For `CN(C(=O)c1ccc2c(c1)C(NC(=O)CC(C)(C)C)CC2)C1CCN(c2ccncc2)CC1` (stereo not shown) [CC_H-206, 3-(3,3-Dimethyl-butanoylamino)-N-methyl-N-(1-pyridin-4-yl-piperidin-4-yl)-2,3-dihydro-1H-indene-5-carboxylic acid amide], the inhibition at 10 µM turned out to be 109%.
Same read-out and setting: under `Cc1ccc(NC(=O)NC2CCOc3ccc(C(=O)N(C)C4CCN(c5ccncc5)CC4)cc32)cc1Cl` (stereo not shown) [CC_H-288, 4-[[(3-Chloro-4-methyl-phenyl)-carbamoyl]amino]-N-methyl-N-(1-pyridin-4-yl-piperidin-4-yl)-3,4-dihydro-2H-chromene-6-carboxylic acid amide] stands 69%; under `CN(C(=O)c1ccc2c(c1)C(NC(=O)c1cccc(C(F)(F)F)c1Cl)CC2(C)C)C1CCN(c2ccncc2)CC1` (stereo not shown) [CC_H-231, 3-[[2-Chloro-3-(trifluoromethyl)-benzoyl]amino]-N,1,1-trimethyl-N-(1-pyridin-4-yl-piperidin-4-yl)-2,3-dihydro-indene-5-carboxylic acid amide], 111%.
The same measure, in the same setting: under `CN(C(=O)c1ccc2c(c1)C(NC(=O)CC(C)(C)C)CCC2)C1CCN(c2ccncc2)CC1` (stereo not shown) [CC_H-251, 8-(3,3-Dimethyl-butanoylamino)-N-methyl-N-(1-pyridin-4-yl-piperidin-4-yl)-5,6,7,8-tetrahydro-naphthalene-2-carboxylic acid amide] stands 111%; under `CN(C(=O)c1ccc2c(c1)C(NC(=O)Nc1cccc(Cl)c1)CC2(C)C)C1CCN(c2ccncc2)CC1` (stereo not shown) [CC_H-233, 3-[[(3-Chlorophenyl)-carbamoyl]amino]-N,1,1-trimethyl-N-(1-pyridin-4-yl-piperidin-4-yl)-2,3-dihydro-indene-5-carboxylic acid amide], 63%; under `CN(C(=O)c1ccc2c(c1)C(NC(=O)Nc1ccccc1Cl)CC2)C1CCN(c2ccc3cnccc3c2)CC1` (stereo not shown) [CC_H-365, 3-[[(2-Chlorophenyl)-carbamoyl]amino]-N-(1-isoquinolin-6-yl-piperidin-4-yl)-N-methyl-2,3-dihydro-1H-indene-5-carboxylic acid amide], 64%.
In the case of `CN(C(=O)c1ccc2c(c1)C(N(C)C(=O)C1CCCCC1)CC2)C1CCN(c2ccncc2)CC1` (stereo not shown) [CC_H-211, 3-(Cyclohexanecarbonyl-methyl-amino)-N-methyl-N-(1-pyridin-4-yl-piperidin-4-yl)-2,3-dihydro-1H-indene-5-carboxylic acid amide], the inhibition at 10 µM was found to be 108%.
The same measure, in the same setting: under `CN(C(=O)c1ccc2c(c1)C(NC(=O)Nc1cc(Cl)cc(Cl)c1)CCC2)C1CCN(c2ccncc2)CC1` (stereo not shown) [CC_H-260, 8-[[(3,5-Dichloro-phenyl)-carbamoyl]amino]-N-methyl-N-(1-pyridin-4-yl-piperidin-4-yl)-5,6,7,8-tetrahydro-naphthalene-2-carboxylic acid amide] stands 61%.
For `Cc1cccc(Cl)c1S(=O)(=O)NC1CCOc2ccc(C(=O)N(C)C3CCN(c4ccncc4)CC3)cc21` (stereo not shown) [CC_H-278, 4-[[(2-Chloro-6-methyl-phenyl)sulfonyl]amino]-N-methyl-N-(1-pyridin-4-yl-piperidin-4-yl)-3,4-dihydro-2H-chromene-6-carboxylic acid amide], the inhibition at 10 µM was found to be 103%.
On the same count and under the same terms, under `Cc1cc(N2CCC(N(C)C(=O)c3ccc4c(c3)C(NS(=O)(=O)CCc3ccccc3Cl)CC4)CC2)cc(C)n1` (stereo not shown) [CC_H-324, 3-[[2-(2-Chlorophenyl)-ethylsulfonyl]amino]-N-[1-(2,6-dimethyl-pyridin-4-yl)-piperidin-4-yl]-N-methyl-2,3-dihydro-1H-indene-5-carboxylic acid amide] stands 108%.
Still for that read-out and setting: under `CN(C(=O)c1ccc2c(c1)C(NS(=O)(=O)Cc1cccc(C(F)(F)F)c1)CC2)C1CCN(c2ccc3cnccc3c2)CC1` (stereo not shown) [CC_H-383, N-(1-Isoquinolin-6-yl-piperidin-4-yl)-N-methyl-3-[[[3-(trifluoromethyl)phenyl]-methylsulfonyl]amino]-2,3-dihydro-1H-indene-5-carboxylic acid amide] stands 50%; under `Cc1cc(N2CCC(N(C)C(=O)c3ccc4c(c3)C(N(C)C(=O)Nc3cccc(Cl)c3Cl)CC4)CC2)cc(C)n1` (stereo not shown) [CC_H-339, 3-[[(2,3-Dichloro-phenyl)-carbamoyl]-methyl-amino]-N-[1-(2,6-dimethyl-pyridin-4-yl)-piperidin-4-yl]-N-methyl-2,3-dihydro-1H-indene-5-carboxylic acid amide], 92%.
Same read-out and setting: under `CN(C(=O)c1ccc2c(c1)C(NC(=O)c1cccc(C(F)(F)F)c1Cl)CCC2)C1CCN(c2ccncc2)CC1` (stereo not shown) [CC_H-254, 8-[[2-Chloro-3-(trifluoromethyl)-benzoyl]amino]-N-methyl-N-(1-pyridin-4-yl-piperidin-4-yl)-5,6,7,8-tetrahydro-naphthalene-2-carboxylic acid amide] stands 111%.
In the case of `Cc1ccc(F)c(C(=O)NC2CCc3ccc(C(=O)N(C)C4CCN(c5ccc6cnccc6c5)CC4)cc32)c1Cl` (stereo not shown) [CC_H-358, 3-[(2-Chloro-6-fluoro-3-methyl-benzoyl)amino]-N-(1-isoquinolin-6-yl-piperidin-4-yl)-N-methyl-2,3-dihydro-1H-indene-5-carboxylic acid amide], the inhibition at 10 µM is 111%.
Still for that read-out and setting: the result for `Cc1cc(N2CCC(N(C)C(=O)c3ccc4c(c3)C(NC(=O)CC(C)C)CC4)CC2)cc(C)n1` (stereo not shown) [CC_H-318, N-[1-(2,6-Dimethyl-pyridin-4-yl)-piperidin-4-yl]-N-methyl-3-(3-methyl-butanoylamino)-2,3-dihydro-1H-indene-5-carboxylic acid amide] reads 111%; that for `CN(C(=O)c1ccc2c(c1)C(NC(=O)Nc1cc(Cl)ccc1Cl)CC2(C)C)C1CCN(c2ccncc2)CC1` (stereo not shown) [CC_H-236, 3-[[(2,5-Dichloro-phenyl)-carbamoyl]amino]-N,1,1-trimethyl-N-(1-pyridin-4-yl-piperidin-4-yl)-2,3-dihydro-indene-5-carboxylic acid amide], 52%; that for `CC(=O)NC1CC(C)(C)c2ccc(C(=O)N(C)C3CCN(c4ccncc4)CC3)cc21` (stereo not shown) [CC_H-229, 3-Acetylamino-N,1,1-trimethyl-N-(1-pyridin-4-yl-piperidin-4-yl)-2,3-dihydro-indene-5-carboxylic acid amide], 104%.
Same read-out and setting: the result for `CN(C(=O)c1ccc2c(c1)C(NC(=O)Nc1ccc(Cl)cc1Cl)CCC2)C1CCN(c2ccncc2)CC1` (stereo not shown) [CC_H-262, 8-[[(2,4-Dichlorophenyl)-carbamoyl]amino]-N-methyl-N-(1-pyridin-4-yl-piperidin-4-yl)-5,6,7,8-tetrahydro-naphthalene-2-carboxylic acid amide] reads 82%; that for `CN(C(=O)c1ccc2c(c1)C(NC(=O)Nc1cc(C(F)(F)F)ccc1Cl)CCO2)C1CCN(c2ccncc2)CC1` (stereo not shown) [CC_H-285, 4-[[[2-Chloro-5-(trifluoromethyl)-phenyl]-carbamoyl]amino]-N-methyl-N-(1-pyridin-4-yl-piperidin-4-yl)-3,4-dihydro-2H-chromene-6-carboxylic acid amide], 75%; that for `CN(C(=O)c1ccc2c(c1)C(NC(=O)Nc1cccc(Cl)c1Cl)CCC2)C1CCN(c2ccncc2)CC1` (stereo not shown) [CC_H-258, 8-[[(2,3-Dichloro-phenyl)-carbamoyl]amino]-N-methyl-N-(1-pyridin-4-yl-piperidin-4-yl)-5,6,7,8-tetrahydro-naphthalene-2-carboxylic acid amide], 106%.
On the same count and under the same terms, the result for `CN(C(=O)c1ccc2c(c1)C(NC(=O)Nc1cccc(Cl)c1)CCO2)C1CCN(c2ccncc2)CC1` (stereo not shown) [CC_H-281, 4-[[(3-Chlorophenyl)-carbamoyl]amino]-N-methyl-N-(1-pyridin-4-yl-piperidin-4-yl)-3,4-dihydro-2H-chromene-6-carboxylic acid amide] reads 99%.

As a reminder, the inhibition is the change of the read-out against control, counted positive when it falls.
